# Experimental data reported in patent publication US10023587B2, “Oxabicycloheptanes and oxabicycloheptenes, their preparation and use” (LIXTE BIOTECHNOLOGY, INC., priority 2007, dated 2018).
# How the values were obtained:
# [1] = tested on: medulloblastoma cell line DAOY; test: Inhibition of growth of medulloblastoma cell line DAOY; format: cell-based; settings: over 7 days (FIG. 16)
# Text: For all cell culture experiments, cells are allowed to grow in the presence or absence of different concentrations of drug or in the presence of the vehicle used to dissolve the drug, PBS for compound 100 and DMSO for compound 102. Cell counts are done in triplicate on day 3 and day 7 and inhibition of growth is expressed as a percentage of the number of cells present in the experimental well divided by the number of cells in a control well.
# [2] = tested on: 23 clinical fungal isolates; test: Antifungal susceptibility testing, whole panel of 23 isolates; format: cell-based; settings: at the levels tested, 0.125-64 μg/ml
# Method: Anti-fungal testing was completed with a common lot for compounds 100 and 102.
# A 10 mg portion of each powder was weighed out and added to 1 ml of sterile distilled water for compound 100 and DMSO for compound 102. The resulting concentration of […] was diluted to a working concentration of 640 μg/ml for each compound. All subsequent dilutions were also made using the respective diluents. Final testing concentrations ranged from 0.125-64 μg/ml.
# A total of 23 isolates were tested to include 3 Candida albicans, 3 Candida glabrata, 3 Cryptococcus neoformans, 3 Aspergillus fumigatus, 3 Rhizopus oryzae, 3, Fusarium solani, 3 Pseudallescheria boydii, and 2 […] rubrum. All isolates were clinical isolates submitted to the Fungus Testing Laboratory for evaluation. Antifungal susceptibility testing was accomplished according to the methods outlined in the National Committee for Clinical Laboratory Standards, M-27A2, Reference Method for Broth Dilution Antifungal Susceptibility Testing of Yeasts; Approved Standard, and M38-A “Reference Method for Broth Dilution Antifungal Susceptibility Testing of Conidium-Forming Filamentous Fungi; Approved Standard”. This includes testing in RPMI-1640 with glutamine and without bicarbonate, an inoculum size of 0.5-2.5×10^3 for yeasts or 1-5×10^4 for moulds, and incubation at 35° C. for 24 and 48 hours.
structure (smiles),measurement,setting,value
"CN1CCN(C(=O)C2C(C(=O)O)[C@H]3CC[C@@H]2O3)CC1 (some centres unmarked) [Compound 100, Endothall 4-Methylpiperazine Monoamide]",Inhibition of growth of DAOY (in words),[1],dose dependent inhibition
same,"Antifungal activity, all isolates (in words)",[2],no activity
